Measurements taken from patent US12551526B2, “Enterically delivered bitter oligopeptides for the treatment for type 2 diabetes” (Cedars-Sinai Medical Center, priority 2015, dated 2026).
Residue numbers refer to the chain shown, from its start. Entries after “also recorded” stand apart in the source; their conditions may differ. Read-outs that look alike come from different tables or passages of the source.

What was measured:
hTAS2R38PAV = target: T1, hTAS2R38PAV (Homo sapiens, UniProt P59533); conditions: taster haplotype; cited from earlier work
T1 sequence (P59533 1-333): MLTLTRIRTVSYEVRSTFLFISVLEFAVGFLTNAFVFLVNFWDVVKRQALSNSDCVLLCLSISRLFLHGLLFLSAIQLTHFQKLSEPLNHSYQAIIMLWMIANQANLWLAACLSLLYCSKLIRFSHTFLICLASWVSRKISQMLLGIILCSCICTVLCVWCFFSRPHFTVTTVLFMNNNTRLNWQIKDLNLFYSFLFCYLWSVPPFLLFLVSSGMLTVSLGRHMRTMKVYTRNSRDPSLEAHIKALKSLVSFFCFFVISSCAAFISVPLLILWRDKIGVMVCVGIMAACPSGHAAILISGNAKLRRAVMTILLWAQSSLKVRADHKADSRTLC

hTAS2R38AVI = target: T2, hTAS2R38AVI (Homo sapiens, UniProt P59533, A262V); conditions: non-taster haplotype; cited from earlier work
T2 sequence (P59533 1-333 A262V): T1 sequence (P59533 1-333) with A262V

HuTu-80 cells [1] = conditions: previous studies; cited from earlier work
HuTu-80 cells [2] = assay: GLP-1 release from cultured HuTu-80 cells (Luminex assay); format: cell-based, human; conditions: for GLP-1 release: HuTu-80 cells treated 30 min, GLP-1 in conditioned media; for increase in GLP-1 over the basal release / GLP-1 release compared with TAS2R38 ligands PTC and PTU: HuTu-80 cells; for increase in GLP-1 over the basal release: 30 min, FIG. 9A; for GLP-1 release compared with TAS2R38 ligands PTC and PTU: FIG. 9B, PTC and PTU 10 mM
Experimental: HuTu-80 cells were untreated (zero-time) or treated with vehicle and various phytochemicals at indicated concentrations for 30 min. […] Values are mean±SE, N=3, *P<0.05, **P<0.01
HuTu-80 cells (HTB-40, ATCC) were propagated in Dulbecco's modified Eagle's medium (DMEM) containing 4 mM L-glutamine, 1.5 g/L sodium bicarbonate, and 4.5 g/L glucose, supplemented with 10% FBS and PSG antibiotic mix and maintained at 10% CO2 and 37° C. For experiments, these cells were seeded in 6-well plates or […] tissue culture dishes, propagated to confluence (5-7 days) and arrested in serum-free media overnight prior to treatments. Prior to the experiment, spent media was replaced with OPTI-MEM (Gibco, Life Technologies, Grand Island, NY) containing Halt Protease and Phosphatase Inhibitor cocktail (Thermo Fisher Scientific, Rockford, IL) and individual wells dosed for 30 min. […] The media from cells was collected and frozen for subsequent peptide hormone release measurement using a Luminex MAGPIX metabolism multiplexing assay kit (HMHMAG-34K) following the manufacturer's instructions.

GLP-1 release = assay: In vivo GLP-1 release in mice after gastric gavage; conditions: PTU-cellulose 5 g/kg, PTU 200 mg/kg, FIG. 4B
Experimental: FIG. 4A Synthesis of PTU-cellulose.
Retro-orbital blood was obtained and GLP-1 was measured at regular intervals.
The molecules were administered by gastric gavage to pathogen-free, 6-to-8-week-old male BALB/c mice. […] The cellulose alone had no effect.

TAS2R38 = target: T3, TAS2R38 (Homo sapiens, UniProt P59533); assay: GLP-1 release in HuTu-80 cells with TAS2R38 siRNA knockdown; format: cell-based; conditions: siTAS2R38 versus siCONTROL, 30 min
T3 construct: Cultured HuTu-80 cells were transfected with single and mixed oligonucleotide siRNAs for TAS2R38; host or cells: HuTu-80
T3 sequence (P59533 1-333): T1 sequence (P59533 1-333)
Experimental: In order to determine the specific GPCR mediating the response of a particular ligand, we performed in vitro RNA silencing of TAS2R38. RNA silencing was performed using a commercial kit (FlexiTube siRNA, Qiagen) consisting of 4 predesigned oligonucleotides that specifically target each gene transcript. Each kit also had accompanying controls and quantifying assays for detection of gene knockdown. Cultured HuTu-80 cells were transfected with single and mixed oligonucleotide siRNAs for TAS2R38 using HiPerFect transfection reagent (Qiagen) or Lipofectamine 2000 (Life Tech) according to the procedure recommended by the manufacturer. Cells were maintained in the basal medium for up to 48 h. Gene knockdown was evaluated by RT-qPCR and Western blot by suitable antibody to ensure inhibition occurred. […] Dose-response curve of the ligand with and without siRNA treatment was generated.
FIGS. 6, 7, and 8 show the receptor expression and knockdown in HuTu-80 cells using a TAS2R38 receptor siRNA.
Conditioned media were collected and frozen until GLP-1 measurement. Values are mean±SD, N=3. GLP-1 is measured using Luminex assay.

HuTu-80 cells [3] = assay: GLP-1 release from cultured HuTu-80 cells (Luminex assay); format: cell-based, human; conditions: FIG. 3; printed as based on in vivo studies in mice

NC(=S)Nc1ccccc1 [PTC, Phenylthiocarbamide]
receptor response (hTAS2R38PAV): strong response at μM concentrations
receptor response (hTAS2R38AVI): does not respond
GLP-1 release (HuTu-80 cells [1]): GLP-1 release

CCCc1cc(=O)[nH]c(=S)[nH]1 [PTU, 6-n-propylthiouracil]
GLP-1 release (HuTu-80 cells [2]): caused GLP-1 release
GLP-1 release into the blood (GLP-1 release): caused GLP-1 release into the blood
GLP-1 release when TAS2R38 expression is knocked down (TAS2R38): right-shifted

O=c1oc2c(O)c(O)cc3c(=O)oc4c(O)c(O)cc1c4c23 [ellagic acid]
increase in GLP-1 over the basal release (HuTu-80 cells [2]): significant increases

CN(C)C(=N)N=C(N)N [metformin]
GLP-1 release (HuTu-80 cells [2]): can activate GLP-1 release

CC1(C)CC[C@]2(C(=O)O)CC[C@]3(C)C(=CC[C@@H]4[C@@]5(C)CC[C@H](O)C(C)(C)[C@@H]5CC[C@]43C)[C@@H]2C1 [oleanolic acid]
increase in GLP-1 over the basal release (HuTu-80 cells [2]): significant increases

CCCCCCCCCCCCCCCC(=O)O [palmitate, palmitic acid]
GLP-1 release (HuTu-80 cells [2]): GLP-1 secretory response was also observed
GLP-1 release compared with TAS2R38 ligands PTC and PTU (HuTu-80 cells [2]): stimulate GLP-1 release comparable to that by TAS2R38 ligands PTC and PTU

CCC(=O)O [propionate]
GLP-1 release (HuTu-80 cells [2]): GLP-1 secretory response was also observed
GLP-1 release compared with TAS2R38 ligands PTC and PTU (HuTu-80 cells [2]): stimulate GLP-1 release comparable to that by TAS2R38 ligands PTC and PTU

O=c1oc2cc(O)ccc2c2ccc(O)cc12 [urolithin A]
increase in GLP-1 over the basal release (HuTu-80 cells [2]): significant increases

Ala-Ala-Ala-Ala (AAAA; printed: Ala-Ala-Ala-Ala) [PolyAla, scrambled PolyAla control peptide]
GLP-1 release (HuTu-80 cells [2]): in effective at causing GLP-1 release

YGLF [BPx1, bitter oligopeptide derived from milk-whey proteins]
potency rank among the four oligopeptides (HuTu-80 cells [3]): most potent
GLP-1 release when TAS2R38 expression is knocked down (TAS2R38): predominantly through TAS2R38; also recorded: decreased

YPFPGPIPN [BPx2, bitter oligopeptide derived from milk-whey proteins]
potency rank among the four oligopeptides (HuTu-80 cells [3]): most potent
